Experimental data reported in patent US5866597A, “Use of triazine compounds for the treatment of memory and learning disorders” (Glaxo Wellcome Inc., priority 1993, dated 1999).

Assays:
[1] = test system: release of excitatory amino acids, principally glutamate; settings: at anticonvulsant brain concentrations; cited from earlier work
[2] = test system: scopolamine-induced pupillary dilatation in rats; assay: Pupil diameter measurement in rats (Table 6); type: in vivo, Male Wistar rats; settings: for Mean pupil diameter: ± SEM
Procedure: (§1) 15 minutes before observation. Under these conditions, which were identical to those used in the learning experiments described in Example 2, changes in salivation and pupil diameter were measured. Salivation was measured by placing a piece of folded filter paper in the rat's mouth and measuring the diameter of the blot in mm after 1 minute. Pupil diameter was measured using a magnifying glass and graticule under normal lighting conditions. For both measures, comparisons were made between control and drug-treated groups using a Student's T-test on independent samples.
(§2) Groups of 6 animals were used.

[3] = test system: scopolamine-induced deficit in mice; assay: Modified light-dark box memory test in mice, scopolamine-induced deficit, drug given pre-training (Table 1); type: in vivo, Male albino CD-1 mice; settings: for Mean latency Day 1 / Mean latency Day 2: ± SEM
Procedure: Male albino CD-1 mice obtained from Charles River were used. They were housed under controlled conditions (temperature 21±2 deg. C., humidity approx. 50%, 12 hour light/dark cycle, food and water ad lib) for one week before use. On the day before test, the mice were housed in groups of six in polythene boxes in the laboratory and marked for identification. Food and water were supplied ad lib. On the test day, animals were weighed and then dosed either 30 minutes before test (piracetam, ondansetron) one hour before test (compound A) or immediately after test.
All drugs were dissolved or suspended in 0.25% (w/v) aqueous celacol, and administered orally (by gavage), i.p. or s.c. The dose volume was 10 ml/kg for all routes.
The apparatus consisted of two boxes with an opening 90 mm×60 mm at floor level between them. A plastic door was used to close the opening when required. The smaller box (290 mm×120 mm×120 mm high) was made of opaque plastics, open at the top to allow illumination by normal laboratory lighting. The larger box (305 mm square×280 mm high) was enclosed apart from the single opening.
This consisted of training, with retest 24 hours later. During training, animals were placed individually in the open box facing away from the end with the opening. After a period of exploration, they usually entered the dark box and the latency to entry in seconds was noted. The door to the dark box was closed, and after 30 seconds had elapsed, the animal was removed gently and returned to the holding box. Twenty-four hours later, an identical procedure was used, except that the session ended as soon as the animal had entered the dark box. The latency was again noted. During the interval, the animals were not handled, and were disturbed as little as possible. Each animal was used once only.
Test drugs or control fluids were given before or immediately after the training session.
Group comparisons were made between latencies to enter the dark compartment on the first and second occasions. For both training and retest occasions, comparisons were made between vehicle and treatment groups. […] The difference between latencies on the two occasions is presented as % decrease on Day 2 compared with Day 1.
The mean latency to enter the dark box±standard error of the mean was calculated from a group of 12 animals. For a given treatment, figures in the columns labelled `Day 1` and `Day 2` show the mean latencies taken from the same group of animals. The difference between data obtained on the two days is illustrated by showing the % decrease, and the data compared using the Mann-Whitney U-test; NS indicates a p value>0.1.

[4] = test system: scopolamine-induced dry mouth in rats; assay: Salivation measurement in rats (Table 6); type: in vivo, Male Wistar rats; settings: for Mean salivation (blot diameter): ± SEM
Procedure: as §1, §2

[5] = compound A 10 mg/kg p.o. + saline s.c.
[6] = compound A 40 mg/kg p.o. + saline s.c.
[7] = compound A 40 mg/kg p.o. + scopolamine 0.1 mg/kg s.c.
[8] = compound A pretreatment, p>0.05 vs vehicle
[9] = saline s.c. + compound A 40 mg/kg p.o., 1 h pre-training
[10] = scopolamine 1 mg/kg s.c. + compound A 10 mg/kg p.o.
[11] = scopolamine 1 mg/kg s.c. + compound A 20 mg/kg p.o.
[12] = scopolamine 1 mg/kg s.c. + compound A 40 mg/kg p.o.

## Nc1nnc(-c2cccc(Cl)c2Cl)c(N)n1 [Compound A, 3,5-Diamino-6-(2,3-dichlorophenyl)-1,2,4-triazine]
[1]
  Inhibition of release of excitatory amino acids, principally glutamate: inhibit the release of excitatory amino acids, principally glutamate
[2]; [5]
  Mean pupil diameter: 7.00 ± 0.58 mm × 10
[2]; [6]
  Mean pupil diameter: 7.75 ± 0.85 mm × 10
[2]; [7]
  Mean pupil diameter: 23.0 ± 1.78 mm × 10
[2]; [8]
  Influence on scopolamine-induced change in pupil diameter: no influence on the scopolamine-induced changes
[3]; saline s.c. + compound A 40 mg/kg p.o., 1 h pre-training, p <0.01
  Difference between days, % Decrease: 45%
[3]; [9]
  Mean latency Day 1: 23.3 ± 3.4 s
  Mean latency Day 2: 12.8 ± 1.2 s
[3]; scopolamine 1 mg/kg s.c. + compound A 10 mg/kg p.o., p NS
  Difference between days, % Decrease: 13%
[3]; [10]
  Mean latency Day 1: 19.6 ± 1.7 s
  Mean latency Day 2: 17.1 ± 2.2 s
[3]; scopolamine 1 mg/kg s.c. + compound A 20 mg/kg p.o., p <0.05
  Difference between days, % Decrease: 28%
[3]; [11]
  Mean latency Day 1: 18.6 ± 2.4 s
  Mean latency Day 2: 13.3 ± 1.5 s
[3]; scopolamine 1 mg/kg s.c. + compound A 40 mg/kg p.o., p <0.001
  Difference between days, % Decrease: 56%
[3]; [12]
  Mean latency Day 1: 22.1 ± 3.2 s
  Mean latency Day 2: 9.7 ± 1.2 s
[4]; [5]
  Mean salivation (blot diameter): 8.75 ± 1.11 mm
[4]; [6]
  Mean salivation (blot diameter): 8.25 ± 0.63 mm
[4]; [7]
  Mean salivation (blot diameter): 2.13 ± 0.63 mm
[4]; [8]
  Influence on scopolamine-induced change in salivation: no influence on the scopolamine-induced changes
